In PMC11870035, “Discovery of Substituted 5-(2-Hydroxybenzoyl)-2-Pyridone Analogues as Inhibitors of the Human Caf1/CNOT7 Ribonuclease” (Molecules, 2024):
Like-named read-outs stand apart in the source and are kept apart here.

Legend:
[1] = target: T1, human nuclease enzyme Caf1/CNOT7 (Homo sapiens, UniProt Q9UIV1); test: fluorescence-based nuclease activity assay; type: biochemical; conditions: for IC50: mean ± standard error, 0.4 µM Caf1/CNOT7, 1 µM Flc-RNA substrate, 30 °C, 60 min, read-out: IC50 versus Caf1/CNOT7; for fold lower potency compared to 1: ratio of IC50 values versus compound 1
Description: Purity of the compounds was verified by LC-MS. The inhibitory activity of the compounds was assessed using a fluorescence-based activity assay described before. Briefly, purified Caf1/CNOT7 was pre-incubated in the presence of compound or vehicle only (DMSO) before addition of a Fluorescein-labelled RNA oligonucleotide substrate. The composition of the final reaction mixture (10 µL) was: 0.4 µM Caf1/CNOT7, 1 µM Flc-RNA substrate, 20 mM Tris–HCl pH 7.9, 50 mM NaCl, 2 mM MgCl2, 10% glycerol, 1 mM β-mercaptoethanol and 5% DMSO. After incubation at 30 °C for 60 min, 10 µL probe mix (5 µM TAMRA-DNA probe, 1% SDS and 20 mM Tris–HCl pH 8.0, 0.5 mM EDTA) was added. Fluorescence intensity was measured using a BioTek Synergy HT plate reader (Agilent, Cheshire, UK) using the filters 485 ± 20 nm (excitation) and 528 ± 20 nm (emission). Raw data were analysed in Microsoft Excel and non-linear regression was carried out using GraphPad Prism 6. Statistical analysis (one-way ANOVA with post-hoc Dunnett’s test) was also carried out using GraphPad Prism.

Caf1/CNOT7 = test system: Caf1/CNOT7; set-up: method as in PMID 24170810; conditions: cited from earlier work
[2] = target: T1, human nuclease enzyme Caf1/CNOT7; set-up: method as in PMID 24170810; conditions: n = 3; read-out: originally reported IC50 versus Caf1/CNOT7; cited from earlier work

T1 sequence (Q9UIV1 whole entry): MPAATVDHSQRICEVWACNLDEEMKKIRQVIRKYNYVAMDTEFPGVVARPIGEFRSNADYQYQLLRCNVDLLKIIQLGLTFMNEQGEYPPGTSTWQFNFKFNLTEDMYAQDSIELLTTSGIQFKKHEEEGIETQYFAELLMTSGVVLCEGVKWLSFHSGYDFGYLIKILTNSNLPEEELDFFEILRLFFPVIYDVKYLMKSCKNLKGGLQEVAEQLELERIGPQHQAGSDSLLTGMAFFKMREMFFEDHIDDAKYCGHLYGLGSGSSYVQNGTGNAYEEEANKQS

N#Cc1cc(C(=O)c2cc(Br)ccc2O)cn(-c2ccccc2)c1=O [Compound 12]
IC50 [1]: 108 ± 4 µM | fold lower potency compared to 1 [1]: 4–5 fold

N#Cc1cc(C(=O)c2cc(Br)ccc2O)cn(-c2ccccc2Oc2ccccc2)c1=O [Compound 4]
IC50 [1]: 39.3 ± 1.6 µM

N#Cc1cc(C(=O)c2cc(Br)ccc2O)cn(-c2ccc(Cl)cc2)c1=O [Compound 8]
IC50 [1]: 32.2 ± 1.6 µM

COc1cc(Cl)c(C)cc1-n1cc(C(=O)c2cc(F)ccc2O)cc(C#N)c1=O [Compound 11]
IC50 [1]: 33.6 ± 1.1 µM | fold lower potency compared to 1 [1]: < 2 fold

Cc1cccc(-n2cc(C(=O)c3cc(Br)ccc3O)cc(C#N)c2=O)c1 [Compound 15]
IC50 [1]: 31.8 ± 1.8 µM

CCc1ccc(-n2cc(C(=O)c3cc(Br)ccc3O)cc(C#N)c2=O)cc1 [Compound 7]
IC50 [1]: 39 ± 2.6 µM

N#Cc1cc(C(=O)c2cc(Br)ccc2O)cn(-c2ccccc2Cl)c1=O [Compound 3]
IC50 [1]: 65.6 ± 3.3 µM

COc1cc(Cl)c(C)cc1-n1cc(C(=O)c2cc(Br)ccc2O)cc(C#N)c1=O [Compound 1, 5-(5-bromo-2-hydroxybenzoyl)-1-(4-chloro-2-methoxy-5-methylphenyl)-2-oxo-1,2-dihydropyridine-3-carbonitrile]
activity in gel-based assay (Caf1/CNOT7): confirmed | selectivity (Caf1/CNOT7): selective to Caf1/CNOT7 | IC50 [1]: 24.1 ± 3.3 µM

N#Cc1cc(C(=O)c2cc(Br)ccc2O)cn(-c2cc(Cl)cc(Cl)c2)c1=O [Compound 17]
IC50 [1]: 19.2 ± 1.1 µM

Cc1ccccc1-n1cc(C(=O)c2cc(Br)ccc2O)cc(C#N)c1=O [Compound 16]
IC50 [1]: 44.5 ± 3.6 µM

N#Cc1cc(C(=O)c2cc(Br)ccc2O)cn(-c2cccc(C(F)(F)F)c2)c1=O [Compound 10]
IC50 [1]: 42.1 ± 1.4 µM

COc1cc(Cl)c(C)cc1-n1cc(C(=O)c2cc(Br)ccc2O)cc(C#N)c1=O
IC50 [2]: 14.6 ± 3.1 µM

COc1ccc(-n2cc(C(=O)c3cc(Br)ccc3O)cc(C#N)c2=O)cc1 [Compound 5]
IC50 [1]: 81.1 ± 5 µM

COc1ccccc1-n1cc(C(=O)c2cc(Br)ccc2O)cc(C#N)c1=O [Compound 6]
IC50 [1]: 80.9 ± 9.2 µM

Cc1ccc(-n2cc(C(=O)c3cc(Br)ccc3O)cc(C#N)c2=O)cc1 [Compound 14]
IC50 [1]: 57.5 ± 4.7 µM

N#Cc1cc(C(=O)c2cc(Br)ccc2O)cn(-c2ccc(F)c(Cl)c2)c1=O [Compound 13]
IC50 [1]: 47 ± 2.7 µM

CCOC(=O)c1ccc(-n2cc(C(=O)c3cc(Br)ccc3O)cc(C#N)c2=O)cc1 [Compound 9]
IC50 [1]: 33.2 ± 0.5 µM
